The values below come from PubChem BioAssay (NCI).

Among the test systems are 786-0 renal; K-562 leukemia; NCI-H226 lung; OVCAR-4 ovarian; OVCAR-5 ovarian; SK-OV-3 ovarian; SR leukemia; SW-620 colon; T-47D breast; TK-10 renal; U251 CNS; UACC-257 melanoma; A498 renal.
What all share (assay): inhibition of tumour cell growth, NCI panel, 48 h

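How tested: cells in 96-well plates exposed to compound for 48 hours at five concentrations. Definition used: TGI = concentration required for complete inhibition of growth.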 Bounds are passed on as bounds.

For `CCCCCCCCCCCCCCCCP(=O)(O)OP(=O)(O)OCC1OC(n2cnc3c(N)ncnc32)C(O)C1O` (stereo unspecified), the TGI with 786-0 renal is 53.2 µM; with K-562 leukemia, over 100 µM; in the experiment with NCI-H226 lung, 39.6 µM; with OVCAR-4 ovarian, over 100 µM; with OVCAR-5 ovarian it was 29.2 µM; with SK-OV-3 ovarian, over 100 µM. The TGI is over 100 µM in the experiment with SR leukemia; 88.1 µM in the experiment on SW-620 colon; over 100 µM in the experiment with T-47D breast; 34.3 µM with TK-10 renal; 41.1 µM in the experiment on U251 CNS; 60 µM in the experiment on UACC-257 melanoma.
With `O=c1cc(-c2cccc(OC(F)(F)F)c2)[nH]c2cc3c(cc12)OCO3`, the TGI is 0.75 µM with 786-0 renal; 7.75 µM with A498 renal; 9.16 µM in the experiment on NCI-H226 lung; over 100 µM in the experiment on OVCAR-5 ovarian; over 100 µM in the experiment on SW-620 colon; over 100 µM in the experiment on T-47D breast. For the same compound, the TGI in the experiment with TK-10 renal was over 100 µM; in the experiment on U251 CNS, 0.188 µM; in the experiment with UACC-257 melanoma, over 100 µM.
`S=C(Nc1cccc(Cl)c1)Nc1ccccn1`: the TGI in the experiment with 786-0 renal, with K-562 leukemia, with NCI-H226 lung, with OVCAR-4 ovarian, with OVCAR-5 ovarian and with SK-OV-3 ovarian was over 100 µM in each case. Moreover, the TGI in the experiment with SR leukemia, with SW-620 colon, in the experiment on T-47D breast, in the experiment on TK-10 renal, in the experiment on U251 CNS and with UACC-257 melanoma was over 100 µM each time.
With `Cc1c2c(n(CCc3ccccc3)c1C)NN=C(C#N)S2(=O)=O`, the TGI in the experiment with 786-0 renal, with K-562 leukemia, with OVCAR-4 ovarian, in the experiment on OVCAR-5 ovarian, in the experiment with SK-OV-3 ovarian and in the experiment with SR leukemia was over 100 µM each time. Moreover, the TGI in the experiment with SW-620 colon, in the experiment on T-47D breast, in the experiment with TK-10 renal, in the experiment with U251 CNS and in the experiment with UACC-257 melanoma was over 100 µM each time.
For the compound `CC1N(C)C(=O)OC12CCN(CCCC(=O)c1ccc(F)cc1)CC2` (stereo unspecified), the TGI with 786-0 renal, in the experiment with A498 renal, with K-562 leukemia, in the experiment on NCI-H226 lung, in the experiment with OVCAR-5 ovarian and in the experiment with SK-OV-3 ovarian was over 100 µM each time. The TGI in the experiment on SW-620 colon, in the experiment with T-47D breast, with TK-10 renal, in the experiment on U251 CNS and with UACC-257 melanoma was over 100 µM each time.
Turning to `NC1=NC(OCC2(CO)CCC2)C=C(NCC2(CO)CCC2)N1` (stereo unspecified), the TGI with 786-0 renal, in the experiment on A498 renal, in the experiment on K-562 leukemia, in the experiment on NCI-H226 lung, in the experiment on OVCAR-4 ovarian and in the experiment on OVCAR-5 ovarian was over 100 µM in each case. In addition, the TGI in the experiment with SK-OV-3 ovarian, with SR leukemia, with SW-620 colon, with T-47D breast, in the experiment with U251 CNS and in the experiment on UACC-257 melanoma was over 100 µM each time.
For the compound `Cc1sc2nc3n(c(=O)c2c1C)N=C(c1ccc(Cl)cc1)CS3`, the TGI with 786-0 renal, in the experiment with A498 renal, with K-562 leukemia, in the experiment on NCI-H226 lung, in the experiment on OVCAR-4 ovarian and in the experiment on OVCAR-5 ovarian was over 100 µM throughout. Further, the TGI in the experiment with SK-OV-3 ovarian, in the experiment with SR leukemia, in the experiment on SW-620 colon, with T-47D breast, in the experiment on U251 CNS and in the experiment with UACC-257 melanoma was over 100 µM throughout.
Consider `CC1C[C@]2(C)C(=S)Nc3ccccc3[C@@H]2Nc2ccccc21` (stereo partly specified), for which the TGI in the experiment with 786-0 renal is 34.1 µM; in the experiment on A498 renal, 36.3 µM; in the experiment on K-562 leukemia, over 100 µM; in the experiment with NCI-H226 lung, 36.6 µM; in the experiment with OVCAR-4 ovarian, 38.6 µM; with OVCAR-5 ovarian it was 43.5 µM. The TGI in the experiment on SR leukemia is over 100 µM; in the experiment on SW-620 colon it was 55.7 µM; with T-47D breast it was 41 µM; in the experiment on TK-10 renal, 39.5 µM; with UACC-257 melanoma, 32.5 µM.
For `O=C1CCCc2cc3c(cc21)CCC3C(=O)O` (stereo unspecified), the TGI with 786-0 renal, with K-562 leukemia, in the experiment with NCI-H226 lung, in the experiment with OVCAR-4 ovarian, in the experiment with OVCAR-5 ovarian and in the experiment with SK-OV-3 ovarian was over 100 µM throughout. In addition, the TGI in the experiment on SR leukemia, in the experiment on SW-620 colon, with T-47D breast, with TK-10 renal, with U251 CNS and in the experiment on UACC-257 melanoma was over 100 µM in each case.
`CC1(C)OCC(C2OC(N3O[C@H](CI)C[C@@H]3c3ccccc3)C3OC(C)(C)OC23)O1` (stereo partly specified): the TGI in the experiment on 786-0 renal, with A498 renal, with K-562 leukemia, in the experiment with OVCAR-4 ovarian, with OVCAR-5 ovarian and with SK-OV-3 ovarian was over 100 µM throughout. In addition, the TGI in the experiment on SR leukemia, with SW-620 colon, with T-47D breast, in the experiment on TK-10 renal, in the experiment with U251 CNS and with UACC-257 melanoma was over 100 µM in each case.
As to `CNC(=O)c1n[nH][nH]c1=O`, the TGI in the experiment with 786-0 renal, in the experiment on A498 renal, in the experiment on K-562 leukemia, in the experiment on NCI-H226 lung, in the experiment on OVCAR-5 ovarian and in the experiment with SK-OV-3 ovarian was over 100 µM throughout. For the same compound, the TGI with SR leukemia, in the experiment on SW-620 colon, in the experiment on T-47D breast, in the experiment on U251 CNS and with UACC-257 melanoma was over 100 µM throughout.
`NC1CC(=O)c2cc(Br)sc21` (stereo unspecified): the TGI in the experiment with 786-0 renal, in the experiment on A498 renal, in the experiment with K-562 leukemia, in the experiment on OVCAR-5 ovarian, in the experiment on SK-OV-3 ovarian and in the experiment with SR leukemia was over 100 µM in each case. Further, the TGI with SW-620 colon, with T-47D breast, in the experiment on TK-10 renal, in the experiment with U251 CNS and in the experiment with UACC-257 melanoma was over 100 µM in each case.
